{"source": "patent US20260167960A1", "about": "“METHODS AND COMPOSITIONS INCLUDING CONJUGATED DNAZYMES” (priority 2022, published 2026)", "tested_on": "K. pneumoniae biofilm on silicon-coated latex Foley catheter", "experiment": "Flow-cell catheter-associated biofilm, CFU assay", "type": "cell-based", "conditions": "2-hour perfusion; 750 or 1000 mcg/mL meropenem; FIG. 6A", "method": "Catheters were then connected to a flow-cell system containing fresh 10% TSB, and fresh media was perfused through the catheter by a pump at 10 ml/hour at 37° C. After 24 hours, treatment solution was perfused into the catheter at 10 ml/hour at 37° C. for 2 hours. Bacteria were scraped from the catheter into 1 ml PBS, and decimal serial dilutions were performed. All dilutions were plated by drop-plating technique on LB agar plates. LB agar plates were incubated at 37° C., and CFU were counted the next morning.\nTo test the effect of conjugated DNAzymes on established, catheter-associated biofilms, K. pneumoniae were incubated in catheters for 2 hours in static conditions and then for 24 hours with fresh media flow, after which they were subject to a 2-hour perfusion with 750 or 1000 mcg/mL meropenem, alone or in combination with tocopherol-conjugated or cholesterol-conjugated DNAzymes. After the incubation, the tubing was cut open and bacteria were scraped from the inside of the tubing, after which the CFU were determined by replating and observing colony formation. […] When CFU formation was tested in plates containing a much lower concentration (10 mcg/mL) of meropenem, the prior treatment with conjugated DNAzymes+meropenem nearly completely abolished colony formation (FIG. 6B), showing that antibiotic resistance was largely, if not entirely, abrogated in the disrupted biofilms.", "data": [{"smiles": "C[C@@H](O)[C@H]1C(=O)N2C(C(=O)O)=C(S[C@@H]3CN[C@H](C(=O)N(C)C)C3)[C@H](C)[C@H]12", "note": "[meropenem]", "values": [{"measurement": "disruption of established catheter-associated biofilms (CFU)", "value": "not antibiotic alone, significantly disrupted the established biofilms"}]}]}
